Here are results for nine compounds from patent US20220308043A1, “FLUORESCENT PROBES FOR IDENTIFICATION AND QUANTIFICATION OF HEPATIC TRANSPORTERS IN VITRO AND IN VIVO” (Université d'Orléans, priority 2021, published 2022).

In data set [1] the target is T1, BSEP (Homo sapiens, UniProt O95342). Put plainly: Efflux assay approach 2: uptake in ABC transporter vesicles (Sf9) in the presence of ATP or AMP. The class given is in vitro ADME. Also noted: purchased Genomembrane GM3010, GM3030 and GM3050 (reagent kits); host or cells: Sf9 cells. To be noted: 10 minutes, FIG. 6. Here is the method: Fluorescent probes were incubated with vesicles at 1 and 10 μM during 10 minutes, while the reference substrates were incubated at the test conditions indicated above. • Approach 3: specificity assessment with HEPARG® MRP2 KO
Transporter assay. Reagent kits for Vesicular Transport Assay from Genomembrane (GM3010, GM3030 and GM3050) were used to determine the specificity of ABC transporters versus tested probes.
The vesicles transfected with BSEP transporter were incubated with the 2 probes 54 and 55 in the presence of ATP or AMP in order to determine the interaction specificity between the probe and the transporter.
Target sequence in this assay (O95342 whole entry, species assumed): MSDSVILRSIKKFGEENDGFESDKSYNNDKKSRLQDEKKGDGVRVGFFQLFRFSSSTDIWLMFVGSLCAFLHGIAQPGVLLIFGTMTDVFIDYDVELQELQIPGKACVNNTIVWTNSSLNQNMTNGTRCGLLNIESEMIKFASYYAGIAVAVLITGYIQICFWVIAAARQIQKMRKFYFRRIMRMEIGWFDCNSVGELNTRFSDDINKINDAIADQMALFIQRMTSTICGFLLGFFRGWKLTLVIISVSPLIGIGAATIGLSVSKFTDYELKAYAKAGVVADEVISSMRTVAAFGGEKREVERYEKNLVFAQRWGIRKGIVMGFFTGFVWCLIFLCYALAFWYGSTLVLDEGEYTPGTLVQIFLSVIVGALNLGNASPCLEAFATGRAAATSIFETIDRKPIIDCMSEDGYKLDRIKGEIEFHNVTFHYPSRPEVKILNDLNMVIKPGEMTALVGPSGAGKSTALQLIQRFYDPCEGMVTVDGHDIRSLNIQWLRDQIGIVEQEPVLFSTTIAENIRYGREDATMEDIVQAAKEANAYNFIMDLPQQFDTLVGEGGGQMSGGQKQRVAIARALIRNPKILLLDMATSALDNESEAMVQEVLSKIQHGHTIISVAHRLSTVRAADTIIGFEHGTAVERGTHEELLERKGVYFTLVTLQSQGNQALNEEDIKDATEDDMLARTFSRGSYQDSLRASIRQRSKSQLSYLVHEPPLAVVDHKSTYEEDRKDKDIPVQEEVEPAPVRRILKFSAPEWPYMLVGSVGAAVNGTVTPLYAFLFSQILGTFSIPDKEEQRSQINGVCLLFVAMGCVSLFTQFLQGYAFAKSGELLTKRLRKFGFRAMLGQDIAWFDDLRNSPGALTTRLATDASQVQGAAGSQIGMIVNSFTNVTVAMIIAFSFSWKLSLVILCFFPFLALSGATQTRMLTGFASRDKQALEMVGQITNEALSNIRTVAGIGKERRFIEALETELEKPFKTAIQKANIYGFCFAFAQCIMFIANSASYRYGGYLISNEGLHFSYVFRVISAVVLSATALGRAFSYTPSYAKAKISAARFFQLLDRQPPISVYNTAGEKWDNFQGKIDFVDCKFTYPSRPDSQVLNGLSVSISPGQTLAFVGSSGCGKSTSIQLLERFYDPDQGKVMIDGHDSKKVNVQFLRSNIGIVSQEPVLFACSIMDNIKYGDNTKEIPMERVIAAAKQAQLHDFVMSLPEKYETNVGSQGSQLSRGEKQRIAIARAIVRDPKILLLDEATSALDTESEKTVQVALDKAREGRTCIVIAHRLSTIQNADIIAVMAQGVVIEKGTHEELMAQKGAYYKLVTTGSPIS

Data set [2] concerns the target T1, BSEP. Put plainly: Efflux assay approach 1: canalicular accumulation in wild-type HEPARG® hepatocytes with or without taurocholate (BSEP competitive inhibitor). Details: both uptake transporters and efflux transporters, such as BSEP, MRP2, Pgp and BCRP; host or cells: differentiated wild-type HepaRG hepatocytes. The class given is cell-based. As to conditions: for dependence of efflux into BC on BSEP: conclusion in words; for probe fluorescence / accumulation in BC with taurocholate: taurocholate as competitive inhibitor of BSEP, 3 hours at 37° C., FIG. 4 image B, FIG. 5. Here is the method:
(§1) After washing with the WME containing 0.1% BSA, the cell cultures are then incubated with WME medium containing 0.1% BSA, with or without the different inhibitors (taurocholate, Verapamil, KO143) at the concentration indicated at the table E2 for 3 hours at 37° C.
Target sequence in this assay (O95342 whole entry): as the sequence (O95342 whole entry, species assumed) above

The next data set deals with T2, BCRP (Homo sapiens, UniProt Q9UNQ0).
T2 construct: both uptake transporters and efflux transporters, such as BSEP, MRP2, Pgp and BCRP; host or cells: differentiated wild-type HepaRG hepatocytes
T2 sequence (Q9UNQ0 1-655): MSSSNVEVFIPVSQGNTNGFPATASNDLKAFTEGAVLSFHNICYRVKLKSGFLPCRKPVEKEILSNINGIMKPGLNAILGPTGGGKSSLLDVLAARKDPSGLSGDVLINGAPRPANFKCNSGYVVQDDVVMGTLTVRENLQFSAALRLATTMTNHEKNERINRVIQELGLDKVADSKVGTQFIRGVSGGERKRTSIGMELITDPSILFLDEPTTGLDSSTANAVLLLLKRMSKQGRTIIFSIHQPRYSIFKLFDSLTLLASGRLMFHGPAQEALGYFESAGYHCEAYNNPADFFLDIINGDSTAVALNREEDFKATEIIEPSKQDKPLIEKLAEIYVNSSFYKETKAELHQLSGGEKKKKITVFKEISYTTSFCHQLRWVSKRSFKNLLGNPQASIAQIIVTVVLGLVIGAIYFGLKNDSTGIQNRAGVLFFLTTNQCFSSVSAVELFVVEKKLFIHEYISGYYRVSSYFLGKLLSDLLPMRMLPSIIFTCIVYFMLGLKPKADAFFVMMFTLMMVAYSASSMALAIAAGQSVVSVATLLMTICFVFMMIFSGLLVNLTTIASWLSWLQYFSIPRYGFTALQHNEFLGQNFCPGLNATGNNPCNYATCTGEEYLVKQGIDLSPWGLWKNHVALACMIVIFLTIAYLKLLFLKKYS
Put plainly: Efflux assay approach 1: canalicular accumulation in wild-type HEPARG® hepatocytes with or without KO143 (BCRP inhibitor). The class given is cell-based. As to conditions: 3 hours at 37° C., FIG. 4 image C. Here is the method: as §1

In another data set the target is T3, Pgp (Homo sapiens, UniProt P08183).
T3 construct: both uptake transporters and efflux transporters, such as BSEP, MRP2, Pgp and BCRP; host or cells: differentiated wild-type HepaRG hepatocytes
Put plainly: Efflux assay approach 1: canalicular accumulation in wild-type HEPARG® hepatocytes with or without Verapamil (Pgp inhibitor). Format: cell-based. To be noted: 3 hours at 37° C., FIG. 4 image D. The method, then:
as §1

Data set [3] relates to primary human hepatocyte (PHH). Here is the method: Four batches of primary human hepatocyte (PHH) are used for in vitro uptake assay:
Cryopreserved PHH are thawed in one-step Hepatocyte Thawing/Plating medium (MIL130) and then cells number and viability were evaluated with trypan blue exclusion test prior to cell treatment.
Influx study. Cryopreserved PHH are thawed in one-step Hepatocyte Thawing/Plating medium (MIL130) and then the cell number and viability are evaluated with trypan blue exclusion test prior to cell treatment. The cells were grown in MW96 at a density of 0.2*10^6/well.
Incubation for uptake evaluation. Incubation buffer: HBSS buffer containing 10 mM Herpes and 0.1% BSA, pH 7.4
The active uptake of each probe was tested according to the Test group 1 conditions. The results are presented in the table below as the percentage of active uptake compared to total uptake.

In data set [4] the target is T4, MRP2 (Homo sapiens, UniProt Q92887). Put plainly: Efflux assay approach 3: canalicular accumulation in HEPARG® MRP2 KO and wild-type cells. As to conditions: for dependence of canalicular efflux on ABC transporter MRP2: conclusion from MRP2 KO accumulation profile; for accumulation / fluorescence intensity in the BC of HEPARG® MRP2 KO cells: probes 1 to 5 μM or 3 μM CDFDA, 37° C., 30 min, FIG. 7.
Protocol: (§2) Two HEPARG® cell lines are used as hepatic cell models for in vitro bile acid efflux assay.
(§3) Before the probe incubation assay, both differentiated HEPARG® wild-type and HEPARG® MRP2 KO cell cultures are washed once with Williams' Medium E (WME) with 0.1% BSA and then incubated with 1 to 5 μM of fluorescent probes (54, 55, 15) in WME with 0.1% BSA or 3 μM of CDFDA in WME at 37° C. for 30 min.
(§4) After incubation, the cell cultures are washed 4 times with WME medium containing 0.5% DMSO and 2% FBS.
(§5) The cell cultures are then observed with a fluorescence microscope and the cell images are taken and compared.
(§6) Both the differentiated wild-type HEPARG®™ and MPR2-KO HEPARG® cells are thawed in HEPARG® Thawing/Plating/General Purpose medium (MIL600/ADD670) and cultured in HEPARG® Maintenance/Metabolism Medium (MIL600/ADD620) (according to the user guide of Biopredic International). Fourteen to twenty days after cell seeding and maintenance, the fully differentiated and polarized cell cultures of both the wild-type and MRP2-KO HEPARG® cells are ready and used for the characterization of biological effects of fluorescent probes in term of specific Efflux Transporter-Mediated efflux of probes in the bile canaliculi of HEPARG® hepatocytes.

Data set [5] deals with bile canaliculi (BC) of HEPARG® cells. Nature of the data set: Bile canaliculi alterations evaluation for cholestasis-DILI prediction in HEPARG® cells. The class given is cell-based, human. To be noted: for alteration of bile canaliculi (BC) revealed by fluorescent probe 15: HEPARG® cells, probe 15, versus control cells incubated only with 15, FIG. 9. Here is the method:
To investigate the application of fluorescent probes for predicting drug-induced cholestasis, cholestatic effects of six reference cholestatic drugs are evaluated by using two protocols.

The test system of another data set is Efflux transporters. As to conditions: cited from earlier work.
In a further data set the test system is BC. As to conditions: cited from earlier work.
The next data set has as its system OCT. Put plainly: Uptake evaluation, Test group 2: probe uptake in PHH with Mpp (OCT inhibitor). The class given is in vitro ADME, human. To be noted: PHH pre-incubated 20 minutes with inhibitor, probe 5 μM, 30 minutes at 37° C.
For another data set, the target named is T5, NTCP (Homo sapiens, UniProt Q14973).
T5 construct: Cryopreserved PHH are thawed in one-step Hepatocyte Thawing/Plating medium; endogenous in cells; host or cells: cryopreserved primary human hepatocytes (PHH)
T5 sequence (Q14973 1-349): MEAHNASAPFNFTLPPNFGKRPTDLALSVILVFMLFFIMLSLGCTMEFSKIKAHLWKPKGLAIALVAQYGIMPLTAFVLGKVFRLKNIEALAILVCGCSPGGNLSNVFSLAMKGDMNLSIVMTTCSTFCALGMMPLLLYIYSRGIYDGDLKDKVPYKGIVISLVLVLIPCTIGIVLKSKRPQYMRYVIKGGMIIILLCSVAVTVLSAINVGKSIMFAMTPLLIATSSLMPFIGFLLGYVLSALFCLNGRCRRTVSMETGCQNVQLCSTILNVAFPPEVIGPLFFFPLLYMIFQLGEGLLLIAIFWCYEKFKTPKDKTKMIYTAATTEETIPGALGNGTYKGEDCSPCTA
Nature of the data set: Uptake evaluation, Test group 2: probe uptake in PHH with Myrcludex (NTCP inhibitor). The class given is in vitro ADME. As to conditions: PHH pre-incubated 20 minutes with inhibitor, probe 5 μM, 30 minutes at 37° C.

For data set [6], the target named is T4, MRP2.
Protocol: as §2, §3, §4, §5, §6
In data set [7] the test system is OATs.
The next data set relates to OATPs. As to conditions: PHH pre-incubated 20 minutes with inhibitor, probe 5 μM, 30 minutes at 37° C.
The test system of data set [8] is OATs. Put plainly: Uptake evaluation, Test group 2: probe uptake in PHH with Indomethacine/Diclofenac (OATs inhibitor). To be noted: PHH pre-incubated 20 minutes with inhibitor, probe 5 μM, 30 minutes at 37° C.

“Also recorded” adds a separate entry of the source. Where two headings read alike, the source gives them in different places.

T4 sequence (Q92887 whole entry): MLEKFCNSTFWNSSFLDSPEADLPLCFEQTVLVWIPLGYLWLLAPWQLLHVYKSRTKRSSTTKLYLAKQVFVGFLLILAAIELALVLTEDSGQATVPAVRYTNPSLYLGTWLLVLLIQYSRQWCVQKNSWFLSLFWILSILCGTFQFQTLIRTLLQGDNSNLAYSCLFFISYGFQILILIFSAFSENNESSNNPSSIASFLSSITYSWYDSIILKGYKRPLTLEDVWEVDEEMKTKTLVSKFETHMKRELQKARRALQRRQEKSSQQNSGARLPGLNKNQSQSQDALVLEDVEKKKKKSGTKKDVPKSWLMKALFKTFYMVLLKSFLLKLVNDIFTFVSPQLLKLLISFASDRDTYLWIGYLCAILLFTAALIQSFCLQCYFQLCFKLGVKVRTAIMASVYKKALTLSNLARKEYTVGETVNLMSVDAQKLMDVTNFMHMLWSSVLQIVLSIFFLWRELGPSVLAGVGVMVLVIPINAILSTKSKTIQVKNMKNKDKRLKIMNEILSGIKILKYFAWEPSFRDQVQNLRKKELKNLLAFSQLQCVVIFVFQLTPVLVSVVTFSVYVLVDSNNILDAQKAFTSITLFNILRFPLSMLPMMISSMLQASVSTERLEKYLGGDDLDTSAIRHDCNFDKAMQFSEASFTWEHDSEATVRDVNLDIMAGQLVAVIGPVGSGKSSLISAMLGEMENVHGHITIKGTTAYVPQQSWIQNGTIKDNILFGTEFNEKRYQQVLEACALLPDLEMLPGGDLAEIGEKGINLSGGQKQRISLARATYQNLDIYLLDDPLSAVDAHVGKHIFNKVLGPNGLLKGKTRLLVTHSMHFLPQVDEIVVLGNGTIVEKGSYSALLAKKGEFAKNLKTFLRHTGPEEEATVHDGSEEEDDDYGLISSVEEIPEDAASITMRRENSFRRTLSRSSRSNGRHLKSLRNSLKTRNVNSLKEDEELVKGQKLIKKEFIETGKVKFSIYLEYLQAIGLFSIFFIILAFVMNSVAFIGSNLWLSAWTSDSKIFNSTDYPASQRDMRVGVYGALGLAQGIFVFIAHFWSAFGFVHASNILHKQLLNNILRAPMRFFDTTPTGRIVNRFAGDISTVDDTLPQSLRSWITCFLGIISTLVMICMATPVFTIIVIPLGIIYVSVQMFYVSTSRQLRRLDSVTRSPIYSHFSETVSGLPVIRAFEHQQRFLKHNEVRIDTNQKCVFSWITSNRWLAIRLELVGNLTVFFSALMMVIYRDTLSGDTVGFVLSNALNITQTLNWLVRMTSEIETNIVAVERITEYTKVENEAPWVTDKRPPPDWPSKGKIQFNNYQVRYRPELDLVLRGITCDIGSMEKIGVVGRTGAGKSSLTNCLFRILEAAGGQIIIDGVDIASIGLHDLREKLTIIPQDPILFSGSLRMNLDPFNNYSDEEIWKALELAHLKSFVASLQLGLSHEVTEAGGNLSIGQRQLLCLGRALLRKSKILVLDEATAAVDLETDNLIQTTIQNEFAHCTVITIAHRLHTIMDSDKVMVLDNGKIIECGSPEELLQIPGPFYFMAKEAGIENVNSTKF
T3 sequence (P08183 whole entry): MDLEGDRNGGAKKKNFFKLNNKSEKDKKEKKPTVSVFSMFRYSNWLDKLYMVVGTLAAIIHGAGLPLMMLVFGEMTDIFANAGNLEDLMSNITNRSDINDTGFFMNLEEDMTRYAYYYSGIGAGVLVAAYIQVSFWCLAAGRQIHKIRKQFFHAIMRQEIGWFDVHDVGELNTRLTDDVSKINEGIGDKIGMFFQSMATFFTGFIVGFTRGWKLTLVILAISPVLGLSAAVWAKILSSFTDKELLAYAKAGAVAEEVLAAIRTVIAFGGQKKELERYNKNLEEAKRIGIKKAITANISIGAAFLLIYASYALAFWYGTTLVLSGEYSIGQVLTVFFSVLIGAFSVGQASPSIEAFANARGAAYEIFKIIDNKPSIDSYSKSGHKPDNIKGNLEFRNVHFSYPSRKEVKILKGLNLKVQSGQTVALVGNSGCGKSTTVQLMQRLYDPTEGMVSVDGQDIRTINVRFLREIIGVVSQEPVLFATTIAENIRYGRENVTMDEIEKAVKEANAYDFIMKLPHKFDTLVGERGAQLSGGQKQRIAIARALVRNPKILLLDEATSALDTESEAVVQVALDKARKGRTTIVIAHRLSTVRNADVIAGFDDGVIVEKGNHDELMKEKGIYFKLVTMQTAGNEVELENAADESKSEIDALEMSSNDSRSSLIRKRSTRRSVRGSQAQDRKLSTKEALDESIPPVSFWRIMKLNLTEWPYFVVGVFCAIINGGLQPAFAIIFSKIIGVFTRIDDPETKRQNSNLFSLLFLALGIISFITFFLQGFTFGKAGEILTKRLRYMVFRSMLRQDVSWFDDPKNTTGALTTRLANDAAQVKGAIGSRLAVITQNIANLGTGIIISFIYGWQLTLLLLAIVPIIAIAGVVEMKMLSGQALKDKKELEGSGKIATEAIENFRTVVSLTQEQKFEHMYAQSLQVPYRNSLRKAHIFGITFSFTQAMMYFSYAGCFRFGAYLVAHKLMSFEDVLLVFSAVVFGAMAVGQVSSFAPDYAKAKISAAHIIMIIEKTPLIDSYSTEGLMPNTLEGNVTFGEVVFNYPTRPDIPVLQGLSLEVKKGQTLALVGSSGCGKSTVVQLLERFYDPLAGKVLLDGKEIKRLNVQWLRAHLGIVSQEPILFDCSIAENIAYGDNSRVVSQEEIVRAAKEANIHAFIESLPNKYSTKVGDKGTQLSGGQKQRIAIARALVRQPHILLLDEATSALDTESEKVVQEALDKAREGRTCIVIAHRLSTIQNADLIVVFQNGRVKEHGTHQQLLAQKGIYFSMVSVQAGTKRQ

For the compound `COC(=O)C(CCCCNC(=O)CCc1ccc2n1[B-](F)(F)[N+]1=C(C)C=C(C)C1=C2)NC(=O)CCC(C)C1CCC2C3C(O)CC4CC(O)CCC4(C)C3CCC12C` [Compound 54, Methyl N6-(3-(5,5-difluoro-7,9-dimethyl-5H-dipyrrolo[1,2-c:2′,1′-f][1,3,2]diazaborinin-3-yl)propanoyl)-N2-((4R)-4-((3R,7S,10S,13R,17R)-3,7-dihydroxy-10,13-dimethylhexadecahydro-1H-cyclopenta[a]phenanthren-17-yl)pentanoyl)-L-lysinate], on BSEP [1] (whatever probe concentrations (1 and 10 μM)), the “uptake in vesicles ATP/AMP” value is given as “no difference”. At BSEP [2], the “dependence of efflux into BC on BSEP” value is reported as “substrate of BSEP” and the “probe fluorescence / accumulation in BC with taurocholate” value was “significant decrease”. Moreover, the “accumulation of probe fluorescence in BC of HEPARG® hepatocytes” value at BSEP [2] (without any inhibitor, FIG. 4 image A) is listed as “significant accumulation”. Moreover, at BCRP, the “BC accumulation with inhibitor of BCRP (KO143) versus control cells” value is on record as “no visible difference”. Besides, the “BC accumulation with inhibitor of Pgp (Verapamil) versus control cells” value at Pgp is on record as “no visible difference”. Besides, in [3], the “type of probe uptake (active transport or passive diffusion)” value is “mainly mediated by transporters”. Also, at MRP2 [4], the “dependence of canalicular efflux on ABC transporter MRP2” value (shortened to “dependence of canalicular efflux”) was “independent” and the “accumulation / fluorescence intensity in the BC of HEPARG® MRP2 KO cells” value is recorded as “stronger fluorescence intensity”.
Turning to `COc1ccccc1Oc1c(NS(=O)(=O)c2ccc(C(C)(C)C)cc2)nc(-c2ncccn2)nc1OCCO` [Bosentan], the “alteration of bile canaliculi (BC) revealed by fluorescent probe 15” value in data set [5] was “important dilation”. Also, the “Theoretical effect: Efflux transporters interaction” value in the data set on Efflux transporters is recorded as “MRP2/BSEP”. In the data set with BC, the “Theoretical effect: Induced effect on BC” value is listed as “dilation”.
As for `CC(=O)Nc1ccc(O)cc1` [Acetaminophen], the “Protocol 1 Effects on BC morphology and BA transporters CDFDA” value in [5] (drug 3 hours at 37° C., then probe CDFDA 3 μM 30 min, FIG. 8A) is “No effect”. Also, the “Theoretical effect: Efflux transporters interaction” value with Efflux transporters is on record as “None”. In addition, the “Theoretical effect: Induced effect on BC” value in the data set on BC is recorded as “None”.
In the case of `COC(=O)[C@H](CCCCNc1ccc([N+](=O)[O-])c2nonc12)NC(=O)CC[C@@H](C)C1CCC2C3C(CC[C@@]21C)[C@@]1(C)CC[C@@H](O)CC1C[C@@H]3O` (stereo partly drawn) [Compound 15, Methyl-N2-((4R)-4-((3R,7S,10S,13R)-3,7-dihydroxy-10,13-dimethylhexadecahydro-1H-cyclopenta[a]phenanthren-17-yl)pentanoyl)-N6-(7-nitrobenzo[c][1,2,5]oxadiazol-4-yl)-L-lysinate], the “% of inhibition Mpp (OCT inhibitor)” value in the data set with OCT stood at 11%. Also, on BSEP [2], the “dependence of efflux into BC on BSEP” value is listed as “weakly dependent on BSEP” and the “probe fluorescence / accumulation in BC with taurocholate” value is listed as “partial inhibition profile”. The “% of inhibition Myrcludex (NTCP inhibitor)” value at NTCP came to 16%. In addition, on MRP2 [6], the “dependence of canalicular efflux” value is “independent”. In addition, in the data set with OATs [7], the “involvement of OATs in the uptake of the probe” value is “mainly dependent on OAT family”. Further, in the data set on OATPs, the “% of inhibition Rifampicine (OATPs inhibitor)” value amounted to 34%. Moreover, in data set [3] (human, 30 min, 5 μM, pH 7.4), the “% Active uptake (Mean value)” value was 31%.
For “Tauro-nor-THCA-24-DBD [reference compound]”, the “% of inhibition Mpp (OCT inhibitor)” value with OCT is 26%. Further, the “% of inhibition Indomethacine/Diclofenac (OATs inhibitor)” value in the data set on OATs [8] was determined as 50%. Besides, the “% of inhibition Myrcludex (NTCP inhibitor)” value on NTCP turned out to be 81%. For the same compound, the “% of inhibition Rifampicine (OATPs inhibitor)” value with OATPs amounted to 24%.
Take `CN(C)CCCN1c2ccccc2Sc2ccc(Cl)cc21` [Chlorpromazine]: the “alteration of bile canaliculi (BC) revealed by fluorescent probe 15” value in data set [5] (listed as CPZ) is reported as “remarkable constriction of BC; also recorded: detectable constriction of BC”. Further, in the data set with Efflux transporters, the “Theoretical effect: Efflux transporters interaction” value is on record as “MRP2/BSEP”. Also, the “Theoretical effect: Induced effect on BC” value in the data set on BC is recorded as “constriction”.
`Cc1c(C)c2c(c(C)c1O)CCC(C)(COc1ccc(CC3SC(=O)NC3=O)cc1)O2` (centres unmarked) [Troglitazone]: the “Theoretical effect: Induced effect on BC” value in the data set with BC was “constriction”.
Regarding `O=S(=O)(c1cccc2cnccc12)N1CCCNCC1` [Fasudil], in the data set with Efflux transporters, the “Theoretical effect: Efflux transporters interaction” value is “No”.
In the case of `COC(=O)CNC(=O)C(CCCCNC(=O)CCc1ccc2n1[B-](F)(F)[N+]1=C(C)C=C(C)C1=C2)NC(=O)CCC(C)C1CCC2C3C(O)CC4CC(O)CCC4(C)C3CCC12C` [Compound 55, Methyl-N6-(3-(5,5-difluoro-7,9-dimethyl-5H-dipyrrolo[1,2-c:2′,1′-f][1,3,2]diazaborinin-3-yl)propanoyl)-N2-((4R)-4-((3R,7S,10S,13R,17R)-3,7-dihydroxy-10,13-dimethylhexadecahydro-1H-cyclopenta[a]phenanthren-17-yl)pentanoyl)-L-lysylglycinate], the “uptake inside the membrane vesicles in the presence of ATP compared to AMP” value on BSEP [1] (probe at 10 μM) was “significant uptake”. Further, the “BC accumulation with inhibitor of BCRP (KO143) versus control cells” value at BCRP was “independent”. The “BC accumulation with inhibitor of Pgp (Verapamil) versus control cells” value on Pgp is “independent”. In data set [3], the “type of probe uptake (active transport or passive diffusion)” value was “mainly mediated by transporters”. Moreover, on MRP2 [4], the “dependence of canalicular efflux” value is on record as “independent” and the “accumulation / fluorescence intensity in the BC of HEPARG® MRP2 KO cells” value is listed as “stronger fluorescence intensity”.
